# Reference: ChEMBL document CHEMBL1201862, “PubChem BioAssay data set” (2004)
# The source made the active and inactive calls.
# Columns and labels:
# Aminopeptidase N = biological target: T1, Aminopeptidase N (Plasmodium falciparum FcB1/Columbia, UniProt O96935); experiment: P. falciparum M1AAP inhibitors, biochemical, fluorogenic H-Leu-NHMec substrate, 1536-well (AID 1445); set-up: species or system Plasmodium falciparum 3D7, 3D7
# T1 sequence (O96935 whole entry): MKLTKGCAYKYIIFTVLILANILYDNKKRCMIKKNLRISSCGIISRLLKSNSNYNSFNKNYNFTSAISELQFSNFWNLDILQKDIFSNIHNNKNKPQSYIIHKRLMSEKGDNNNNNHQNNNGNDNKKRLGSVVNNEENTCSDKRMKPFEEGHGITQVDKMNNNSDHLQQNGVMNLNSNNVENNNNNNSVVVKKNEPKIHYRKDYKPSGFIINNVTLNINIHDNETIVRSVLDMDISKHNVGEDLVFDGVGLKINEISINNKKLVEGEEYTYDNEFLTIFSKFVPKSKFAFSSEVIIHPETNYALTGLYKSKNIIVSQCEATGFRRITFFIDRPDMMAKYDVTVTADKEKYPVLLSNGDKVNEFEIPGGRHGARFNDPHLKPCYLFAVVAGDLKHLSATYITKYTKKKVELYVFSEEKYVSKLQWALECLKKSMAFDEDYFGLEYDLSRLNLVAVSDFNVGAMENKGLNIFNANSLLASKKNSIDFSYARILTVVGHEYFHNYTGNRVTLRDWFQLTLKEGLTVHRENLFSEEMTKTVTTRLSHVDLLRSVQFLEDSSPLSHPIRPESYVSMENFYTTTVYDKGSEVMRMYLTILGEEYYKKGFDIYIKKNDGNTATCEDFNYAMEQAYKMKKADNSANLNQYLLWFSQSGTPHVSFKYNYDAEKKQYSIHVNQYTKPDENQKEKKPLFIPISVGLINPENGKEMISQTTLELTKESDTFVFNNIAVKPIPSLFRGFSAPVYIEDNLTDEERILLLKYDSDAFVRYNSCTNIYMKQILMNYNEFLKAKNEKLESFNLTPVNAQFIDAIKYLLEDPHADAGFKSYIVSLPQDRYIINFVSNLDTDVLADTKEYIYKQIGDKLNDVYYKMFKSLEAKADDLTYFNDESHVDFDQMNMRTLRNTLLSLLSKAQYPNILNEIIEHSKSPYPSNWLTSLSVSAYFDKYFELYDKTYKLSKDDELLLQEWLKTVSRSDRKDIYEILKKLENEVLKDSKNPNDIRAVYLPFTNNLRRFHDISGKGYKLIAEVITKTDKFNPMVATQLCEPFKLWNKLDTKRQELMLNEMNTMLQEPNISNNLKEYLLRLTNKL
# [1] = A549 cell cytotoxicity, dose response, cytotoxicity control, plate reader, cherry-pick, antagonist series (AID 743412); format: functional, cell-based
# SN12K1 = experiment: cells; format: functional; details: Homo sapiens
# P388/ADR = experiment: cells; format: functional; details: Mus musculus
# [2] = biological target: Heat shock protein HSP 90-alpha (Homo sapiens, UniProt P07900); format: functional, organism-based
# cells = format: functional
# INS1 = experiment: beta cell apoptosis inhibitors, cytokine rescue, dose response, luminescence, retest (AID 449756); format: functional, cell-based; details: Rattus norvegicus;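 also: cell death triggered by IL-1 beta plus TNF-alpha plus IFN-gamma mixture; protective hits raise ATP signal compared with cytokine alone wells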
# [3] = cytotoxicity in HEK-293T cells, dose response, cytotoxicity control for TCR NF-kB inhibitor project, luminescence, T-cell screen hits (AID 489026); format: functional, cell-based;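 also: cells exposed to compound about 14 hours before the viability readout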
# [4] = Luminescence Cell-Based Dose Retest to Confirm Inhibitors of Cancer Stem Cells. [Related pubchem assays (depositor defined):AID2717, AID2721]; format: functional; details: Homo sapiens
# [5] = biological target: T2, High affinity choline transporter 1 (Homo sapiens, UniProt Q9GZV3); experiment: CHT inhibitors, dose response, cell-based, 5-point CRC, membrane potential dye (AID 504840); format: functional
# T2 sequence (Q9GZV3 whole entry): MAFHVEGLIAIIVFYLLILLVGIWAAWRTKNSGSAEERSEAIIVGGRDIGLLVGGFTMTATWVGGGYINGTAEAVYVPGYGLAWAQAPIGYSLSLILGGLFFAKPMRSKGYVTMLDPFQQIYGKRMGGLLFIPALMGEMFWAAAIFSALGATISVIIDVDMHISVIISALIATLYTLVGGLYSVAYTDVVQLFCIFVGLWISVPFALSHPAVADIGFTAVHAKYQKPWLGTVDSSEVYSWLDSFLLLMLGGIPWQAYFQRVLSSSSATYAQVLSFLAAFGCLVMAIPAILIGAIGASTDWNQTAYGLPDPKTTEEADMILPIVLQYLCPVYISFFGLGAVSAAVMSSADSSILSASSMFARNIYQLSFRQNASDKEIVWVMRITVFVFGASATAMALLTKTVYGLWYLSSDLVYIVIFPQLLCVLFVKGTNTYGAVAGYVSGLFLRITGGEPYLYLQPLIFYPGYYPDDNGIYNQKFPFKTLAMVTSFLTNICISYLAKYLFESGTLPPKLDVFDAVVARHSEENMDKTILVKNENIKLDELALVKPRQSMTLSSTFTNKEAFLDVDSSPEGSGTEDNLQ
# BJ [6] = experiment: cytotoxicity toward BJ-TERT fibroblasts, dose response, cell-based, RAS-independent, luminescence (AID 1933); format: functional; details: Homo sapiens
# BJ [7] = experiment: cytotoxicity toward BJ-TERT-LT-ST fibroblasts, dose response, cell-based, RAS-independent, luminescence (AID 1935); format: functional; details: Homo sapiens;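 also: BJ fibroblasts immortalized with TERT plus LT and ST oncogenes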
# Nonstructural protein 1 = Nonstructural protein 1 (Influenza A virus, UniProt Q194T2); format: functional, Influenza A virus (A/California/07/2009(H1N1))
# Sequence of Nonstructural protein 1 (Q194T2 whole entry): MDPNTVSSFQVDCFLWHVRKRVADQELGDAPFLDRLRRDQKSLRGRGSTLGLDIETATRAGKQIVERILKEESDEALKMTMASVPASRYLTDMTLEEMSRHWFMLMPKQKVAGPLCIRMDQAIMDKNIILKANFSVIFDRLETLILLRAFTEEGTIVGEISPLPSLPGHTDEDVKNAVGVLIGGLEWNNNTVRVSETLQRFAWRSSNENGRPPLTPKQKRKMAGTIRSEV
# [8] = cytotoxicity toward DRD oncogenic fibroblasts, dose response, cell-based, non-viral oncogenic, luminescence (AID 1934); format: functional; details: Homo sapiens
# BJ [9] = experiment: cells; format: functional, cell-based; details: Homo sapiens
# [10] = Shn3 3'UTR reporter inhibitors, dose response, cell-based, Clone20 osteoblasts, firefly luciferase, cherry-picked (AID 624132); format: functional;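 also: firefly luciferase luminescence from reporter carrying the Shn3 3'UTR in osteoblasts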
# [11] = control 3'UTR Renilla luciferase suppression, dose response, counter-screen for Shn3 inhibitor project, cell-based, Clone20-Shn3RL, cherry-picked (AID 624133); format: functional
# [12] = HepG2 cell cytotoxicity, dose response, cytotoxicity control for Shn3 inhibitor project, CellTiter-Glo, cherry-picked (AID 624134); format: functional, cell-based
compound,measurement,setting,value
N#Cc1cc2c(nc1SCc1ccccc1)CCCC2=O,IC50,Aminopeptidase N,86.4 µM (active)
C[C@H](CO)N1C[C@H](C)[C@H](CN(C)C(=O)CN2CCOCC2)Oc2ncc(C#CCN(C)C)cc2C1=O,AC50,[1],> 52 µM (inactive)
O=C(O)/C=C/c1c[nH]cn1,GI50,SN12K1,> 500 µM (inactive)
same,GI50,P388/ADR,> 500 µM (inactive)
O=C(CCSc1nnc(-c2ccncc2)o1)Nc1ccc(Cl)cc1,AC50,[2],1.65 µM (active)
same,IC50,cells,29.5 µM (active)
CCCOc1ccc(/C=N/Nc2cc(N3CCOCC3)ncn2)c(O)c1,AC50,INS1,2.27 µM (active)
same,IC50,[3],> 80 µM (inactive)
same,AC50,[4],2.87 µM (active)
Cc1ccc(C[S+]([O-])Cc2ccc(C(=O)NC3CCCCCC3)o2)cc1 (centres undefined),IC50,[5],14.5 µM (active)
CCc1c(C)nc2ccccc2c1O,IC50,[5],13.2 µM (active)
CC(C)(C)c1nnc(N/N=C/c2ccccc2O)n(N)c1=O,EC50,BJ [6],1.86 µM (active)
same,EC50,BJ [7],15.1 µM (active)
same,IC50,[3],> 80 µM (inactive)
same,IC50,Nonstructural protein 1,5.93 µM (active)
same,EC50,[8],2.47 µM (active)
same,EC50,BJ [9],8.53 µM (inconclusive)
O=C(O)c1cccc(N2C(=O)c3cccc4c(Cl)ccc(c34)C2=O)c1,IC50,Aminopeptidase N,83.3 µM (active)
Cc1ccc(NC(=O)C2CCN(S(=O)(=O)c3ccc(N4CCCC4=O)cc3)CC2)cc1Cl,AC50,[10],0.549 µM (active)
same,AC50,INS1,1.93 µM (active)
same,AC50,[11],0.808 µM (active)
same,AC50,[12],> 70 µM (inactive)
COc1cc2cnc(-c3ccccc3)c(C(=O)c3ccc(F)cc3)c2cc1OC,AC50,[2],2.12 µM (active)
O=C(c1ccc2c(=O)n(-c3ccccc3)c(=S)[nH]c2c1)N1CCCCC1,AC50,[10],1.44 µM (active)
same,AC50,[11],3.14 µM (active)
same,AC50,[12],64.2 µM (active)
Cc1ccc(N=C(N)Nc2nc(O)cc(CSc3nnc(C)s3)n2)c(C)c1,IC50,[3],> 80 µM (inactive)
Cc1cc([N+](=O)[O-])c(NC2CCCCC2)c([N+](=O)[O-])c1,IC50,Nonstructural protein 1,41.5 µM (active)
COC(=O)c1ccc(CSc2nc3c(c(=O)n2-c2ccccc2)SCC3)o1,IC50,Nonstructural protein 1,> 100 µM (active)
